Test results taken from US9822069B2, “Urea derivative or pharmacologically acceptable salt thereof” (KYORIN PHARMACEUTICAL CO. LTD., priority 2013, dated 2017).

target: T1, human FPRL1 (Homo sapiens, UniProt P25090); test: Measurement test of agonist activity on human FPRL1 (test of calcium mobilization in cell, HEK293 with human FPRL1 and Gα15 expression vectors); assay type: cell-based; conditions: calcium mobilization in HEK293 cells with human FPRL1 and Gα15 expression vectors
T1 construct: expressed in transfected cells; host or cells: HEK293 (JCRB9068, NIBIO), transient transfection with pCMV-script vectors using Lipofectamine 2000
T1 sequence (P25090 1-351): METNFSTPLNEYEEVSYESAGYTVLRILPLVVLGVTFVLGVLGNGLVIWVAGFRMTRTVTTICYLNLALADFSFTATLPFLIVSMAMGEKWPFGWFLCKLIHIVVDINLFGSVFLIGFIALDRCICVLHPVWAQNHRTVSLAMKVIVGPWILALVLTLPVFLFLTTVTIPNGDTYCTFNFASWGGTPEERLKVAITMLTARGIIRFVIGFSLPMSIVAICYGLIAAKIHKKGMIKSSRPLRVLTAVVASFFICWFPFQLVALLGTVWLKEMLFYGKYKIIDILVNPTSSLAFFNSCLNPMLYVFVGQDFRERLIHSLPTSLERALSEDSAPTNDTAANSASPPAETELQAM
From the text: Measurement Test of Agonist Activity on Human FPRL1
(1-1) Construction of Human FPRL1 Expression Vector
Human FPRL (SEQ ID NO: 3) was amplified in a PCR reaction from cDNA derived from a monocytic leukemia cell line THP-1 (TIB-202, ATCC) as a template using a forward primer shown in SEQ ID NO: 1, a reverse primer shown in SEQ ID NO: 2, and KOD-plus-ver. 2 (KOD-211, TOYOBO CO., LTD.). The amplified PCR product and pCMV-script vector (212220, STRATAGENE) were digested with Hind III (1060A, Takara Bio Inc.) and XhoI (1094A, Takara Bio Inc.), and the resultant digest was ligated with Ligation high ver. 2 (LGK-201, TOYOBO CO., LTD.). The ligation product was transformed into DH5α (DNA-901, TOYOBO CO., LTD.), cultured on a 100 μg/mL kanamycin-containing LB medium, and purified with HiSpeed Plasmid Maxi Kit (12662, QIAGEN).
(1-2) Construction of Human Gα15 Expression Vector
Human Gα15 (SEQ ID NO: 6) was amplified in a PCR reaction from cDNA derived from a myeloid leukemia cell line HL-60 (CCL-240, ATCC) as a template using a forward primer shown in SEQ ID NO: 4, a reverse primer shown in SEQ ID NO: 5, and KOD-plus-ver. 2. The amplified PCR product and pCMV-script vector were digested with Hind III and XhoI, and the resultant digest was ligated with Ligation high ver. 2. The ligation product was transformed into DH5α, cultured on a 100 μg/mL kanamycin-containing LB medium, and purified with HiSpeed Plasmid Maxi Kit.
(2-1) Method for Culturing and Subculturing HEK293
HEK293 (JCRB9068, NIBIO) was cultured in an incubator at 5% CO2 and 37° C. using DMEM (11885-092, GIBCO) containing 10% FBS and 1× Penicillin-Streptomycin (15140-122, GIBCO). Subculture was carried out as followings: The cells that reached 80 to 90% confluency were washed with PBS(−), separated using 0.25% Trypsin-EDTA (25200-072, GIBCO), centrifuged, re-suspended in a fresh medium, and then seeded in Collagen Type 1 Coated dish (4020-010, IWAKI) at a split ratio of 1:8 (cultured for 3 days).
(2-2) Introduction of Human FPRL1 and Gα15 Expression Vectors
HEK293 that reached 80 to 90% confluency was washed with PBS(−), separated using 0.25% Trypsin-EDTA, centrifuged, and re-suspended in a fresh medium excluding 1× Penicillin-Streptomycin. The cells were inoculated in a Collagen Type 1 coated 6-well plate (4810-010, IWAKI) to 5×10^5 cells/2.5 mL/well and cultured overnight. On the next day, human FPRL1 and Gα15 expression vectors were introduced using Lipofectamine 2000 transfection reagent (11668-019, Life technologies). First, the human FPRL1 and Gα15 expression vectors were diluted with Opti-MEM I Reduced Serum Medium (31985-070, GIBCO) to 2 μg/250 μL/well and Lipofectamine 2000 transfection reagent was diluted with Opti-MEM I Reduced Serum Medium to be 4 μL/250 μL/well. The vectors and reagent were softly diffused, and incubated at room temperature for 5 minutes. The vector solution was mixed with Lipofectamine 2000 transfection reagent in equal amounts. In order to form a composite of the vectors and Lipofectamine 2000 transfection reagent, the mixture was incubated at room temperature for 20 minutes, and added at 500 μL/well to the medium of inoculated cells. The treated cells were cultured for 24 hours, inoculated in Poly-D-Lysine coated 96-well plate (356640, BD Biosciences) at a cell density of 7×10^4 cells/100 μL/well, and cultured for another 24 hours. The resultant cells were used in a measurement test of calcium mobilization in the cells.
(3) Evaluation of Agonist Activity on Human FPRL1 (Test of Calcium Mobilization in Cell)
An appropriate amount of each test compound was first weighed, and dissolved to 10^−2 M by addition of dimethyl sulfoxide (DMSO). […]

SMILES	EC50 [nM]
CNC(=O)CN1C[C@@H](c2c(F)cc(OC)cc2F)[C@H](NC(=O)Nc2ccc(F)cc2)C1=O (relative stereo) [Example 17-2, (−)-2-{(3S*,4R*)-4-(2,6-difluoro-4-methoxyphenyl)-3-[3-(4-fluorophenyl)ureido]-2-oxopyrrolidin-1-yl}-N-methylacetamide]	0.07
O=C(Nc1ccc(F)cc1)N[C@@H]1/C(=N/OCCO)NC[C@H]1c1cc2c(cc1F)OCC2 (single isomer, unassigned) [EXAMPLE 32-19, (−)-1-((3S*,4R*,Z)-4-(6-fluoro-2,3-dihydrobenzofuran-5-yl)-2-[(2-hydroxyethoxy)imino]pyrrolidin-3-yl)-3-(4-fluorophenyl)urea]	0.13
COc1ccc([C@@H]2CNC(=O)[C@H]2NC(=O)Nc2ccc(F)cc2)cc1F (single isomer, unassigned) [EXAMPLE 1-8, (−)-1-[(3S*,4R*)-4-(3-fluoro-4-methoxyphenyl)-2-oxopyrrolidin-3-yl]-3-(4-fluorophenyl)urea]	0.9
COc1ccc([C@@H]2CNC(=O)[C@H]2NC(=O)Nc2ccc(F)cc2)c(C)c1 (single isomer, unassigned) [EXAMPLE 1-11, (−)-1-(4-fluorophenyl)-3-[(3S*,4R*)-4-(4-methoxy-2-methylphenyl)-2-oxopyrrolidin-3-yl]urea]	1.59
CCOC(=O)CN1C[C@@H](c2c(F)cc(OC)cc2F)[C@H](NC(=O)Nc2ccc(F)cc2)C1=O (single isomer, unassigned) [EXAMPLE 24-16, (−)-2-{(3S*,4R*)-4-(2,6-difluoro-4-methoxyphenyl)-3-[3-(4-fluorophenyl)ureido]-2-oxopyrrolidin-1-yl}acetic acid ethyl ester]	0.15
CCCN1C[C@@H](c2c(F)cc(OC)cc2F)[C@H](NC(=O)Nc2ccc(F)cc2)C1=O (relative stereo) [Example 24-11, (−)-1-[(3S*,4R*)-4-(2,6-difluoro-4-methoxyphenyl)-2-oxo-1-propylpyrrolidin-3-yl]-3-(4-fluorophenyl)urea]	0.06
CO/N=C1\NC[C@@H](c2c(F)cc(OC)cc2F)[C@@H]1NC(=O)Nc1cc2ccccc2s1 (single isomer, unassigned) [EXAMPLE 32-11, (−)-1-(benzo[b]thiophen-2-yl)-3-[(3S*,4R*,Z)-4-(2,6-difluoro-4-methoxyphenyl)-2-(methoxyimino)pyrrolidin-3-yl]urea]	0.88
COc1ccc([C@@H]2CNC(=O)[C@H]2NC(=O)Nc2ccc(F)c(F)c2)cc1 (single isomer, unassigned) [EXAMPLE 1-3, (-)-1-(3,4-difluorophenyl)-3-[(3S*,4R*)-4-(4-methoxyphenyl)-2-oxopyrrolidin-3-yl]urea]	2.57
COc1cc(F)c([C@@H]2CN(OC)C(=O)[C@H]2NC(=O)Nc2ccc(F)cc2)c(F)c1 (single isomer, unassigned) [EXAMPLE 27-2, (−)-1-[(3S*,4R*)-4-(2,6-Difluoro-4-methoxyphenyl)-1-methoxy-2-oxopyrrolidin-3-yl]-3-(4-fluorophenyl)urea]	0.1
COc1cc(F)c([C@@H]2CNC(=O)[C@H]2NC(=O)Nc2cc3ccccc3s2)c(F)c1 (relative stereo) [Example 1-35, (−)-1-(benzo[b]thiophen-2-yl)-3-[(3S*,4R*)-4-(2,6-difluoro-4-methoxyphenyl)-2-oxopyrrolidin-3-yl]urea]	0.76
CNC(=O)C(C)N1C[C@@H](c2ccc(OC)cc2)[C@H](NC(=O)Nc2ccc(F)cc2)C1=O (single isomer, unassigned; isomer b) [Example 21-1, (−)-2-{(3S*,4R*)-3-[3-(4-Fluorophenyl)ureido]-4-(4-methoxyphenyl)-2-oxopyrrolidin-1-yl}-N-methylpropionamide (isomer B)]	0.04
COc1cc(F)c([C@@H]2CNC(=O)[C@H]2NC(=O)Nc2ccc(F)cc2)cc1F (single isomer, unassigned) [EXAMPLE 1-13, (−)-1-[(3S*,4R*)-4-(2,5-difluoro-4-methoxyphenyl)-2-oxopyrrolidin-3-yl]-3-(4-fluorophenyl)urea]	0.15
O=C(Nc1ccc(F)cc1)N[C@@H]1C(=O)NC[C@H]1c1c(F)cc2c(c1F)CCO2 (relative stereo) [Example 1-80, 1-[(3S*,4R*)-4-(4,6-difluoro-2,3-dihydrobenzofuran-5-yl)-2-oxopyrrolidin-3-yl]-3-(4-fluorophenyl)urea]	0.69
CNC(=O)C(C)(C)N1C[C@@H](c2ccc(OC)cc2)[C@H](NC(=O)Nc2ccc(F)cc2)C1=O (relative stereo) [Example 23-1, (−)-2-{(3S*,4R*)-3-[3-(4-Fluorophenyl)ureido]-4-(4-methoxyphenyl)-2-oxopyrrolidin-1-yl}-N,2-dimethylpropionamide]	0.09
COc1ccc([C@@H]2CN(CCO)C(=O)[C@H]2NC(=O)Nc2ccc(Cl)cc2)cc1 (single isomer, unassigned) [Example 15-1B, (+)-trans-1-(4-Chlorophenyl)-3-[1-(2-hydroxyethyl)-4-(4-methoxyphenyl)-2-oxopyrrolidin-3-yl]urea]	1.99
COc1cc(F)c([C@@H]2CN(CCO)C(=O)[C@H]2NC(=O)Nc2ccc(Cl)nc2)c(F)c1 (relative stereo) [Example 24-9, (−)-1-(6-chloropyridin-3-yl)-3-[(3S*,4R*)-4-(2,6-difluoro-4-methoxyphenyl)-1-(2-hydroxyethyl)-2-oxopyrrolidin-3-yl]urea]	0.88
COc1cc(F)c([C@@H]2CNC(=O)[C@H]2NC(=O)Nc2ncc(Cl)s2)c(F)c1 (relative stereo) [Example 1-26, (−)-1-(5-chlorothiazol-2-yl)-3-[(3S*,4R*)-4-(2,6-difluoro-4-methoxyphenyl)-2-oxopyrrolidin-3-yl]urea]	1.91
CCOC(=O)C(C)(C)N1C[C@@H](c2cc3c(cc2F)OCC3)[C@H](NC(=O)Nc2ccc(F)cc2)C1=O (single isomer, unassigned) [EXAMPLE 24-21, (−)-2-{(3S*,4R*)-4-(6-fluoro-2,3-dihydrobenzofuran-5-yl)-3-[3-(4-fluorophenyl)ureido]-2-oxopyrrolidin-1-yl}-2-methylpropanoic acid ethyl ester]	0.45
CSc1ccc([C@@H]2CNC(=O)[C@H]2NC(=O)Nc2ccc(F)cc2)cc1 (single isomer, unassigned) [EXAMPLE 1-20, (−)-1-(4-fluorophenyl)-3-[(3S*,4R*)-4-(4-methylthiophenyl)-2-oxopyrrolidin-3-yl]urea]	1.75
COc1cc(F)c([C@@H]2CN(CS(C)(=O)=O)C(=O)[C@H]2NC(=O)Nc2ccc(F)cc2)c(F)c1 (relative stereo) [Example 24-14, (−)-1-{(3S*,4R*)-4-(2,6-difluoro-4-methoxyphenyl)-1-[(methylsulfonyl)methyl]-2-oxopyrrolidin-3-yl}-3-(4-fluorophenyl)urea]	0.12
